Measured values: ChEMBL document CHEMBL1201862, “PubChem BioAssay data set” (2004)
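1) Cells in 96-well plates. 2) Compound, 48 h, 5 concentrations. 3) Linear interpolation between surrounding doses. 4) Unreached endpoint = highest concentration. Here, GI50 denotes the concentration required for 50% inhibition of growth.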 Active and inactive are the calls of the source. Rule as the data show it: active = GI50 up to about 1.1 µM and inactive = higher.

Assays:
Assay in all cases: NCI-60 cell line screen, 48 h
786-0 = system: 786-0
A549 = system: A549
ACHN = system: ACHN
COLO 205 = system: COLO 205
DMS-114 = system: DMS-114
DMS-273 = system: DMS-273
EKVX = system: EKVX
HCC 2998 = system: HCC 2998
HCT-116 = system: HCT-116
HCT-15 = system: HCT-15
HOP-92 = system: HOP-92
HT-29 = system: HT-29
IGROV-1 = system: IGROV-1
K562 = system: K562
KM-20L2 = system: KM-20L2
KM12 = system: KM12
LXFL 529 = system: LXFL 529
M19-MEL = system: M19-MEL
MOLT-4 = system: MOLT-4
Malme-3M = system: Malme-3M
NCI-H226 = system: NCI-H226
NCI-H23 = system: NCI-H23
OVCAR-3 = system: OVCAR-3
OVCAR-4 = system: OVCAR-4
OVCAR-5 = system: OVCAR-5
OVCAR-8 = system: OVCAR-8
RPMI-8226 = system: RPMI-8226
RXF 393 = system: RXF 393
SF-268 = system: SF-268
SF-295 = system: SF-295
SF-539 = system: SF-539
SK-MEL-28 = system: SK-MEL-28
SK-MEL-2 = system: SK-MEL-2
SK-MEL-5 = system: SK-MEL-5
SK-OV-3 = system: SK-OV-3
SN12C = system: SN12C
SNB-19 = system: SNB-19
SNB-75 = system: SNB-75
SNB-78 = system: SNB-78
SR = system: SR
SW-620 = system: SW-620
TK-10 = system: TK-10
U-251 = system: U-251
UACC-257 = system: UACC-257
UACC-62 = system: UACC-62
UO-31 = system: UO-31
A498 = system: A498
LOX IMVI = system: LOX IMVI
NCI/ADR-RES = system: NCI/ADR-RES
CAKI-1 = system: CAKI-1
CCRF-CEM = system: CCRF-CEM
DLD-1 = system: DLD-1
HL-60 = system: HL-60
HOP-62 = system: HOP-62
M14 = system: M14
NCI-H460 = system: NCI-H460
NCI-H522 = system: NCI-H522
BT-549 = system: BT-549
DU-145 = system: DU-145
Hs-578T = system: Hs-578T
MCF7 = system: MCF7
MDA-MB-231 = system: MDA-MB-231
MDA-MB-435 = system: MDA-MB-435
MDA-N = system: MDA-N
PC-3 = system: PC-3
T47D = system: T47D

Compound: NCCCOCC(=O)O
- GI50 (786-0): > 100 µM (inactive)
- GI50 (A549): > 100 µM (inactive)
- GI50 (ACHN): > 100 µM (inactive)
- GI50 (COLO 205): > 100 µM (inactive)
- GI50 (DMS-114): > 100 µM (inactive)
- GI50 (DMS-273): > 100 µM (inactive)
- GI50 (EKVX): > 100 µM (inactive)
- GI50 (HCC 2998): > 100 µM (inactive)
- GI50 (HCT-116): > 100 µM (inactive)
- GI50 (HCT-15): > 100 µM
- GI50 (HOP-92): > 100 µM (inactive)
- GI50 (HT-29): > 100 µM (inactive)
- GI50 (IGROV-1): > 100 µM (inactive)
- GI50 (K562): > 100 µM (inactive)
- GI50 (KM-20L2): > 100 µM (inactive)
- GI50 (KM12): > 100 µM (inactive)
- GI50 (LXFL 529): > 100 µM (inactive)
- GI50 (M19-MEL): > 100 µM (inactive)
- GI50 (MOLT-4): > 100 µM (inactive)
- GI50 (Malme-3M): > 100 µM (inactive)
- GI50 (NCI-H226): > 100 µM (inactive)
- GI50 (NCI-H23): > 100 µM (inactive)
- GI50 (OVCAR-3): > 100 µM (inactive)
- GI50 (OVCAR-4): > 100 µM (inactive)
- GI50 (OVCAR-5): > 100 µM (inactive)
- GI50 (OVCAR-8): > 100 µM (inactive)
- GI50 (RPMI-8226): > 100 µM (inactive)
- GI50 (RXF 393): > 100 µM (inactive)
- GI50 (SF-268): > 100 µM (inactive)
- GI50 (SF-295): > 100 µM (inactive)
- GI50 (SF-539): > 100 µM (inactive)
- GI50 (SK-MEL-28): > 100 µM (inactive)
- GI50 (SK-MEL-2): > 100 µM (inactive)
- GI50 (SK-MEL-5): > 100 µM (inactive)
- GI50 (SK-OV-3): > 100 µM (inactive)
- GI50 (SN12C): > 100 µM (inactive)
- GI50 (SNB-19): > 100 µM (inactive)
- GI50 (SNB-75): > 100 µM (inactive)
- GI50 (SNB-78): > 100 µM (inactive)
- GI50 (SR): > 100 µM (inactive)
- GI50 (SW-620): > 100 µM (inactive)
- GI50 (TK-10): > 100 µM (inactive)
- GI50 (U-251): > 100 µM (inactive)
- GI50 (UACC-257): > 100 µM (inactive)
- GI50 (UACC-62): > 100 µM (inactive)
- GI50 (UO-31): > 100 µM (inactive)

Compound: COc1ccc(N[C@@H]2c3cc4c(cc3C(c3cc(OC)c(O)c(OC)c3)[C@H]3C(=O)OCC32)OCO4)cc1OC (stereo not given in full)
- GI50 (A498): > 100 µM (inactive)
- GI50 (DMS-273): > 100 µM (inactive)
- GI50 (EKVX): > 32.7 µM (inactive)
- GI50 (HCT-15): > 100 µM
- GI50 (HOP-92): > 100 µM (inactive)
- GI50 (LOX IMVI): > 100 µM (inactive)
- GI50 (NCI-H23): 0.297 µM (active)
- GI50 (NCI/ADR-RES): > 19.9 µM (inactive)
- GI50 (OVCAR-4): 20.3 µM (inactive)
- GI50 (OVCAR-5): > 19.9 µM (inactive)
- GI50 (SK-MEL-28): > 19.9 µM (inactive)
- GI50 (UACC-257): 4.21 µM (inactive)

Compound: Nc1nc(CCl)nc(Nc2ccccc2)n1
- GI50 (786-0): 2 µM (inactive)
- GI50 (A549): 26.2 µM (inactive)
- GI50 (ACHN): 27 µM (inactive)
- GI50 (CAKI-1): 12.4 µM (inactive)
- GI50 (CCRF-CEM): 2.14 µM (inactive)
- GI50 (COLO 205): 21.8 µM (inactive)
- GI50 (DLD-1): 36.9 µM (inactive)
- GI50 (DMS-114): 18.4 µM (inactive)
- GI50 (DMS-273): 4.16 µM (inactive)
- GI50 (HCC 2998): 17.4 µM (inactive)
- GI50 (HCT-116): 19.5 µM (inactive)
- GI50 (HL-60): 3.27 µM (inactive)
- GI50 (HOP-62): 16.3 µM (inactive)
- GI50 (HOP-92): 18.2 µM (inactive)
- GI50 (HT-29): 12.5 µM (inactive)
- GI50 (IGROV-1): 16.6 µM (inactive)
- GI50 (K562): > 10 µM (inactive)
- GI50 (KM-20L2): 18.6 µM (inactive)
- GI50 (KM12): 15.1 µM (inactive)
- GI50 (LXFL 529): 14.8 µM (inactive)
- GI50 (M14): 16.9 µM (inactive)
- GI50 (M19-MEL): 29.4 µM (inactive)
- GI50 (MOLT-4): 15.8 µM (inactive)
- GI50 (Malme-3M): 17.4 µM (inactive)
- GI50 (NCI-H226): 26.2 µM (inactive)
- GI50 (NCI-H23): 18.6 µM (inactive)
- GI50 (NCI-H460): 17.3 µM (inactive)
- GI50 (NCI-H522): 1.75 µM (inactive)
- GI50 (OVCAR-3): 17.2 µM (inactive)
- GI50 (OVCAR-4): 17.4 µM (inactive)
- GI50 (OVCAR-5): 19.9 µM (inactive)
- GI50 (OVCAR-8): 30.2 µM (inactive)
- GI50 (RPMI-8226): 4.1 µM (inactive)
- GI50 (SF-268): 19.2 µM (inactive)
- GI50 (SF-295): 23.8 µM (inactive)
- GI50 (SF-539): 25 µM (inactive)
- GI50 (SK-MEL-28): 15.8 µM (inactive)
- GI50 (SK-MEL-2): 18.8 µM (inactive)
- GI50 (SK-MEL-5): 17.5 µM (inactive)
- GI50 (SNB-19): 46.6 µM (inactive)
- GI50 (SNB-75): 6.24 µM (inactive)
- GI50 (SR): 12.9 µM (inactive)
- GI50 (SW-620): 21.3 µM (inactive)
- GI50 (TK-10): 24 µM (inactive)
- GI50 (U-251): 3.99 µM (inactive)
- GI50 (UACC-257): 15.9 µM (inactive)
- GI50 (UACC-62): 19 µM (inactive)
- GI50 (UO-31): 28.5 µM (inactive)

Compound: COC(=N)C1(C#N)NC(c2ccsc2)C(C#N)(C#N)NC1c1ccsc1 (stereo not given)
- GI50 (786-0): > 100 µM (inactive)
- GI50 (A498): > 100 µM (inactive)
- GI50 (A549): > 100 µM (inactive)
- GI50 (ACHN): > 100 µM (inactive)
- GI50 (BT-549): > 100 µM (inactive)
- GI50 (CAKI-1): > 100 µM (inactive)
- GI50 (CCRF-CEM): > 100 µM (inactive)
- GI50 (COLO 205): > 100 µM (inactive)
- GI50 (DU-145): > 100 µM (inactive)
- GI50 (EKVX): > 100 µM (inactive)
- GI50 (HCC 2998): > 100 µM (inactive)
- GI50 (HCT-116): > 100 µM (inactive)
- GI50 (HCT-15): > 100 µM
- GI50 (HL-60): 78.3 µM (inactive)
- GI50 (HOP-62): > 100 µM (inactive)
- GI50 (HOP-92): 60.7 µM (inactive)
- GI50 (HT-29): > 100 µM (inactive)
- GI50 (Hs-578T): > 100 µM (inactive)
- GI50 (IGROV-1): > 100 µM (inactive)
- GI50 (K562): > 100 µM (inactive)
- GI50 (KM12): > 100 µM (inactive)
- GI50 (LOX IMVI): > 100 µM (inactive)
- GI50 (M14): > 100 µM (inactive)
- GI50 (MCF7): > 100 µM (inactive)
- GI50 (MDA-MB-231): 76.7 µM (inactive)
- GI50 (MDA-MB-435): > 100 µM (inactive)
- GI50 (MDA-N): > 100 µM (inactive)
- GI50 (MOLT-4): > 100 µM (inactive)
- GI50 (Malme-3M): > 100 µM (inactive)
- GI50 (NCI-H226): > 100 µM (inactive)
- GI50 (NCI-H23): > 100 µM (inactive)
- GI50 (NCI-H460): > 100 µM (inactive)
- GI50 (NCI-H522): > 100 µM (inactive)
- GI50 (NCI/ADR-RES): > 100 µM (inactive)
- GI50 (OVCAR-3): > 100 µM (inactive)
- GI50 (OVCAR-4): > 100 µM (inactive)
- GI50 (OVCAR-5): > 100 µM (inactive)
- GI50 (OVCAR-8): > 100 µM (inactive)
- GI50 (PC-3): 81.1 µM (inactive)
- GI50 (RPMI-8226): > 100 µM (inactive)
- GI50 (RXF 393): > 100 µM (inactive)
- GI50 (SF-268): > 100 µM (inactive)
- GI50 (SF-295): > 100 µM (inactive)
- GI50 (SF-539): > 100 µM (inactive)
- GI50 (SK-MEL-28): > 100 µM (inactive)
- GI50 (SK-MEL-2): > 100 µM (inactive)
- GI50 (SK-MEL-5): > 100 µM (inactive)
- GI50 (SK-OV-3): > 100 µM (inactive)
- GI50 (SN12C): > 100 µM (inactive)
- GI50 (SNB-19): > 100 µM (inactive)
- GI50 (SNB-75): 88.5 µM (inactive)
- GI50 (SR): > 100 µM (inactive)
- GI50 (SW-620): > 100 µM (inactive)
- GI50 (T47D): 80.2 µM (inactive)
- GI50 (TK-10): > 100 µM (inactive)
- GI50 (U-251): > 100 µM (inactive)
- GI50 (UACC-257): > 100 µM (inactive)
- GI50 (UACC-62): > 100 µM (inactive)
- GI50 (UO-31): > 100 µM (inactive)
